Consider 1 molecule from PMC4608832, “Synthesis of New 4-Aminoquinolines and Evaluation of Their In Vitro Activity against Chloroquine-Sensitive and Chloroquine-Resistant Plasmodium falciparum” (PLoS ONE, 2015).

Like-named read-outs stand apart in the source and are kept apart here.

Series [1] concerns P. falciparum 3D7 (CQ-sensitive). In words: In vitro antiplasmodial activity, 3H-hypoxanthine incorporation, strain 3D7. In kind it is cell-based. The note with it: Plasmodium falciparum, IC50 ± SD, read-out: Antiplasmodial activity, IC50, 3D7. Here is the method: (§1) The following strains of Plasmodium falciparum were used in this study: F32 (Tanzania), Dd2 (SE Asia), K1 (SE Asia), FcB1 (Colombia), K14 (Cambodia) and 3D7 (Africa). […] Parasites at the ring stage (laboratory A) or asynchronous parasites (laboratory B) were grown in human A+ or O+ red blood cells at a 1.5% (laboratory A) or 2% (laboratory B) haematocrit and a 0.8–1% parasitaemia. Synchronization of the parasites was performed by sorbitol treatment.
(§2) Further dilutions were in complete culture medium. The complexes were tested for their inhibitory effect toward P. falciparum intraerythrocytic development. […] 100 μL from a culture at a 3% (laboratory A) or 4% (laboratory B) hematocrit in complete medium was added per well. […] Plates were freeze-thawed and harvested on filters. […] The percentage of growth inhibition was calculated from the parasite-associated radioactivity. 100% ^3H-hypoxanthine incorporation was determined from a control grown in the absence of drug or test compound.

Series [2] relates to P. falciparum Dd2. Briefly: In vitro antiplasmodial activity, 3H-hypoxanthine incorporation, strain Dd2. The format is cell-based. The note with it: Plasmodium falciparum, IC50 ± SD, read-out: Antiplasmodial activity, IC50, Dd2. Here is the method:
as §1, §2

Series [3] deals with P. falciparum K1 (CQ-resistant). Briefly: In vitro antiplasmodial activity, 3H-hypoxanthine incorporation, strain K1. The format is cell-based. The note with it: Plasmodium falciparum, IC50 ± SD, read-out: Antiplasmodial activity, IC50, K1. Here is the method:
as §1, §2

The nature of series [4]: in vitro. As to conditions: human, microsomes. Here is the method:
The evaluation of microsomal stability was performed by Cyprotex US, LLC, Watertown, MA. […] After separation on an HILIC HPLC colum (Sepax HILIC […] 2.1 x 30 mm) using an acetonitrile-water gradient system, peaks were analyzed by mass spectrometry (MS) using ESI ionization in MRM mode. The signal was optimized for each compound by ESI positive or negative ionization mode. An MS2 scan or an SIM scan was used to optimize the fragmenter voltage and a product ion analysis was used to identify the best fragment for analysis, and the collision energy was optimized using a product ion or MRM scan. An ionization ranking was assigned indicating the compound’s ease of ionization.
A control reaction omitting NADPH was performed for each compound in order to detect any NADPH-independent degradation. Aliquots were removed at 0, 10, 20, 40, and 60 min and mixed with an equal volume of ice-cold Stop Solution (methanol containing haloperidol, diclofenac, or other internal standard). The stopped reactions were further incubated for at least 10 min at -20°C, and an additional volume of water was added. The samples were centrifuged to remove precipitated protein, and the supernatants were analyzed by LC/MS/MS to quantify the remaining parent. Data were converted to % remaining by dividing by the time zero concentration value, and fitted to a first-order decay model to determine half-life values. Intrinsic clearance values were calculated from the half-life and protein concentrations by using the equation CLint = ln 2 / t1/2 [microsomal protein].

Details of series [5]: method as in PMID 11805197. As to conditions: elimination of the active metabolite after AQ; cited from earlier work.

As to `CCN(CC)Cc1cc(Nc2ccnc3cc(Cl)ccc23)ccc1O` [AQ, amodiaquine, reference compound], the IC50 in series [1] (3D7, laboratory A (Marseille), 5% CO2, 10% O2, 85% N2) worked out at 24.6 ± 3.06 nM; in series [1] (3D7, laboratory B (Paris), candle jar ~17% O2, 3% CO2, 80% N2), 11.9 ± 1 nM; in series [2] (DD2, laboratory A (Marseille), 5% CO2, 10% O2, 85% N2, Dd2 CQ-resistant under these conditions), 31.6 ± 7.77 nM; in series [2] (DD2, laboratory B (Paris), candle jar ~17% O2, 3% CO2, 80% N2, Dd2 CQ-sensitive under these conditions) it was 11.3 ± 0.64 nM; in series [3] (K1, laboratory A (Marseille), 5% CO2, 10% O2, 85% N2), 34.3 ± 0.58 nM; in series [3] (K1, laboratory B (Paris), candle jar ~17% O2, 3% CO2, 80% N2), 9.6 ± 0.51 nM. In series [4] (pH 7.4), this molecule showed an intrinsic metabolic clearance (microsomal CLint) at 1 μM of 431 ± 33.4 µL/min/mg. The half-life at 1 μM in series [4] (pH 7.4, NADPH-dep. t1/2) is 5.4 ± 0.42 min; in series [4] (pH 7.4, NADPH-free t1/2), more than 240 min. For the same molecule, the terminal half-life in series [5] was ~ 100 h.
